One compound from PMC7751408, “Production, purification and biochemical characterisation of a novel lipase from a newly identified lipolytic bacterium Staphylococcus caprae NCU S6” (Journal of Enzyme Inhibition and Medicinal Chemistry, 2020) can be followed below.

This assay relates to T1, SCNL (lipase from Staphylococcus caprae NCU S6).
T1 construct: native extracellular enzyme purified from culture supernatant of the source strain (ammonium sulphate, ultrafiltration, Sephadex G-50, DEAE-Sepharose); ~87 kDa by SDS-PAGE
Description: colorimetric p-nitrophenol release at […] nm, Lineweaver-Burk. In kind it is biochemical. The note with it: 0.1-5.0 mM p-NPP, optimum conditions (optimal pH 9.0 and 40 °C); free enzyme.

SMILES strings stand for the structures.

For `CCCCCCCCCCCCCCCC(=O)Oc1ccc([N+](=O)[O-])cc1` [p-nitrophenyl palmitate], the Km was 695 µM.
